In the CheMixHub viscosity set:

Test: xn = mol fraction of the nth substance listed

O=C1CCCO1 + COC(=O)OC
viscosity [mPa·s]
Settings	293.15 K	298.15 K	303.15 K	308.15 K	313.15 K	318.15 K	323.15 K
101 kPa, x2 = 0.1013	1.635	1.52	1.413	1.316	1.231	1.154	1.083
101 kPa, x2 = 0.2013	1.437	1.331	1.237	1.154	1.08	1.013	0.953
101 kPa, x2 = 0.3001	1.277	1.186	1.104	1.033	0.968	0.91	0.857
101 kPa, x2 = 0.4006	1.138	1.058	0.987	0.923	0.867	0.816	0.77
101 kPa, x2 = 0.5	1.018	0.95	0.889	0.836	0.786	0.742	0.701
101 kPa, x2 = 0.5986	0.918	0.856	0.802	0.753	0.709	0.669	0.634
101 kPa, x2 = 0.6999	0.83	0.776	0.728	0.685	0.647	0.612	0.58
101 kPa, x2 = 0.7989	0.75	0.702	0.659	0.62	0.585	0.553	0.524
101 kPa, x2 = 0.8995	0.685	0.644	0.605	0.57	0.538	0.51	0.483
101.3 kPa, x2 = 0.1282	–	1.22	–	–	–	–	–
101.3 kPa, x2 = 0.1724	–	1.14	–	–	–	–	–
101.3 kPa, x2 = 0.2631	–	0.99	–	–	–	–	–
101.3 kPa, x2 = 0.4545	–	0.85	–	–	–	–	–
101.3 kPa, x2 = 0.5555	–	0.83	–	–	–	–	–
101.3 kPa, x2 = 0.6603	–	0.76	–	–	–	–	–
101.3 kPa, x2 = 0.7792	–	0.78	–	–	–	–	–
101.3 kPa, x2 = 0.8823	–	0.67	–	–	–	–	–

Brc1ccccc1 + COC(C)=O
viscosity [mPa·s], 101 kPa
Settings	298.15 K	308.15 K
x2 = 0.0439	0.978	0.915
x2 = 0.1485	0.848	0.811
x2 = 0.2482	0.747	0.725
x2 = 0.3503	0.662	0.649
x2 = 0.4378	0.602	0.592
x2 = 0.4901	0.57	0.561
x2 = 0.5493	0.538	0.529
x2 = 0.6489	0.492	0.48
x2 = 0.7491	0.453	0.437
x2 = 0.8491	0.421	0.399
x2 = 0.9433	0.397	0.368
